Assays:
dog platelets = assay: Inhibition of platelet aggregation (dog platelets, agonist-induced, Chrono-Log Lumi-Aggregometer); type: cell-based; settings: Canis lupus familiaris, stimulated by ADP, between about
Experimental: (§1) Blood was collected (citrated to prevent coagulation) from, naive, adult mongrel dogs. Platelet rich plasma, PRP, was prepared by centrifugation at 150×g for 10 min at room temperature. Washed platelets were prepared by centrifuging PRP at 800×g for 10 min. The cell pellet thus obtained was washed twice in Tyrode's buffer (pH 6.5) without Ca^++ and resuspended in Tyrode's buffer (pH 7.4) containing 1.8 mM Ca^++ at 3×10^5 cells/mL. Peptides were added 3 min. prior to the agonist in all assays of platelet aggregation. Final agonist concentrations were 0.1 unit/mL thrombin and […] (Sigma). Aggregation was monitored in a Chrono-Log Lumi-Aggregometer. Light transmittance 5 min after addition of the agonist was used to calculate percent aggregation according to the formula % aggregation =[(90-CR)[…]]×100, where CR is the chart reading, 90 is the baseline, and 10 is the PRP blank reading. IC50 's were determined by plotting [% inhibition of aggregation] vs. [concentration of peptide]. Peptides were assayed at 200 μM and diluted sequentially by a factor of 2 to establish a suitable dose response curve.

[1] = Stability of the peptide to plasma proteases in platelet-rich plasma (3 h incubation prior to agonist); type: in vitro ADME, dog; settings: up to 3 h
Experimental: as §1
To assess the stability of the peptide to plasma proteases, the peptides were incubated for 3 h (rather than 3 min) in the PRP prior to addition of the agonist.

Structure (SMILES) | IC50 (dog platelets) [nM] | stability in platelet-rich plasma [1]
CN(C(=O)c1ccccc1)[C@@H](CCCNC(=N)N)C(=O)NCC1=CC(CC(=O)O)C(=O)N(c2ccccc2)CC1 (stereo partly shown) [Example 1, 1-phenyl-2-oxo-3-carboxymethyl-5-[(N-benzoyl-N-methyl-arginylamino)methyl]-2,3,6,7-tetrahydro-1H-azepine] | 500 to 1500 | stable in platelet-rich plasma for up to 3 h
CC(=O)N(C)[C@@H](CCCNC(=N)N)C(=O)NCC1=CC(CC(=O)O)C(=O)N(c2ccccc2)CC1 (stereo partly shown) [Example 2, 1-phenyl-2-oxo-3-carboxymethyl-5-[acetyl-(N-methylarginyl)-aminomethyl]-2,3,6,7-tetrahydro-1H-azepine] | 500 to 1500 | stable in platelet-rich plasma for up to 3 h
